Several values for one entry are separate records, joined by “and”; a condition that tells them apart may be missing. Identical values can stand only once.
Key:
in vitro = details: human, plasma
Method: (§1) Rat and human plasma were obtained from qualified vendors. 5 μL of 500 μM of the test article solution was added to 495 μL of pre-incubated human or rat plasma to reach a final concentration of 5 μM. The final concentration of organic solvents was not more than 0.5%. The assay was performed in duplicate. The reaction samples were incubated in a 37° C. water bath with shaking at approximately 60 rpm. 50 μL of the reaction samples were collected at 0, 30, 60, 120 and 180 minutes. The reaction was stopped by adding 300 μL of room temperature quench solution (acetonitrile containing internal standards (IS, 200 nM labetalol, 100 nM alprazolam and 2 μM ketoprofen)). The samples were vortexed for 5 minutes followed by centrifugation of the samples at 3,220 g for 30 minutes at room temperature to precipitate the protein. 100 μL of the supernatant was transferred to a new plate and diluted with 100 μL or 200 μL water according to the LC/MS signal response and peak shape. The samples were mixed well and analyzed using LC/MS/MS. The remaining percentage of parent drug versus reaction time was used to calculate the t1/2 value.

Rat plasma stability = type: in vitro ADME; details: rat; for half-life at 5 μM: plasma
Method: Rat and human plasma were obtained from qualified vendors. […] The assay was performed in duplicate.

DPP4 = DPP4 (Homo sapiens, UniProt P27487); assay: in vitro; details: recombinant enzyme
Method: Aliquots were withdrawn at 0, 60 and 120 minutes from the reaction mixture and quenched with 20-volumes of cold acetonitrile. […] Glycine-proline p-nitroanilide was used as a positive control for this assay.

[1] = Pharmacokinetic studies in rats: plasma and lung; details: rat, in vivo, iv
Method: Six to eight weeks old Sprague-Dawley rats were procured from a qualified provider. Test compounds were introduced in rats by a single intravenous administration. […] Blood samples (0.1, 0.2 or 0.5 mL) were collected with a 1 mL syringe containing anticoagulants K2EDTA. Blood samples were centrifuged to obtain plasma for analysis. […] After collection at each time point, lung samples were frozen at −75° C. Prior to analysis, a portion of lung sample was weighed and homogenized with phosphate buffer saline. […] Data analysis and pharmacokinetic parameters were generated using WinNonlin software.

[2] = Chemical stability at pH 4.5 and pH 7.4 in PBS; type: physicochemical; details: for Chemical Stability, pH 4.5: PBS pH 4.5, 37° C.; for Chemical Stability, pH 4.5 / Chemical Stability, pH 7.4: 5 μM, up to 240 min; for Chemical Stability, pH 7.4: PBS pH 7.4, 37° C.
Method: The assay was performed in duplicate. […] Samples were incubated at 37° C. at 600 rpm.

[3] = Metabolic stability in rat liver microsomes; type: in vitro ADME; details: rat, microsomes, 1 μM
Method: Rat liver microsomes were obtained from qualified vendors and metabolic stability of the test compound was determined at 1 μM. The compound was incubated at 37° C. with 0.5 mg microsome/mL in the buffer in the presence of 1 mM NADPH. Aliquots of 50 μL were taken from the reaction solution at 0, 15, 30, 45 and 60 minutes. […] All samples were analyzed in duplicates.

[4] = target: T1, Glucocorticoid receptor (GR) (Homo sapiens, UniProt P04150); assay: TR-FRET GR competitive binding assay; details: 0.1 μM
T1 sequence (P04150 1-777): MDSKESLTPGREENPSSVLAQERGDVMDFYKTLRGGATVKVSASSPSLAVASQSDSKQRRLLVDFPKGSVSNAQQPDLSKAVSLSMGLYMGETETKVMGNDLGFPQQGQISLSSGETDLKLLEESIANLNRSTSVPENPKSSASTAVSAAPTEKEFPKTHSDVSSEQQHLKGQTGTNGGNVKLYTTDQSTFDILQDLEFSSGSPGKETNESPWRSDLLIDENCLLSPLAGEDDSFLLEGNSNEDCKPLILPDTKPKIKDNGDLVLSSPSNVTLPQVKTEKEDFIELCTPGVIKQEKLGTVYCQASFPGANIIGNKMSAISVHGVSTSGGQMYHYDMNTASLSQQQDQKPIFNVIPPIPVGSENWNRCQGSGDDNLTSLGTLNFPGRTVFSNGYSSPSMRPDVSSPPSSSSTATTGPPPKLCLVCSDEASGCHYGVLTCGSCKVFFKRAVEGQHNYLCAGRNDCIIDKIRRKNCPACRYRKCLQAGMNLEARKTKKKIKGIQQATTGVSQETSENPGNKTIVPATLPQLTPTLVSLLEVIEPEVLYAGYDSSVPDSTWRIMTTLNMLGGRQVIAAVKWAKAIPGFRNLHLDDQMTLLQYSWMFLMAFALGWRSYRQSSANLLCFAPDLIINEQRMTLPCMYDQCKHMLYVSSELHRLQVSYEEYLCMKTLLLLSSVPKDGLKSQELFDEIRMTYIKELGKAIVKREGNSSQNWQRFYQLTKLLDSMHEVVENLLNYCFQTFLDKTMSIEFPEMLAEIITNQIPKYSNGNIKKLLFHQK
Method: Glucocorticoid receptor (GR) binding of prodrugs was determined using TR-FRET GR competitive binding assay. Three-point (0.1, 1 and 10 μM) binding was evaluated for each prodrug.

[5] = read-out: Rat Plasma Stability t½

DPP4, sequence (P27487 whole entry, species assumed): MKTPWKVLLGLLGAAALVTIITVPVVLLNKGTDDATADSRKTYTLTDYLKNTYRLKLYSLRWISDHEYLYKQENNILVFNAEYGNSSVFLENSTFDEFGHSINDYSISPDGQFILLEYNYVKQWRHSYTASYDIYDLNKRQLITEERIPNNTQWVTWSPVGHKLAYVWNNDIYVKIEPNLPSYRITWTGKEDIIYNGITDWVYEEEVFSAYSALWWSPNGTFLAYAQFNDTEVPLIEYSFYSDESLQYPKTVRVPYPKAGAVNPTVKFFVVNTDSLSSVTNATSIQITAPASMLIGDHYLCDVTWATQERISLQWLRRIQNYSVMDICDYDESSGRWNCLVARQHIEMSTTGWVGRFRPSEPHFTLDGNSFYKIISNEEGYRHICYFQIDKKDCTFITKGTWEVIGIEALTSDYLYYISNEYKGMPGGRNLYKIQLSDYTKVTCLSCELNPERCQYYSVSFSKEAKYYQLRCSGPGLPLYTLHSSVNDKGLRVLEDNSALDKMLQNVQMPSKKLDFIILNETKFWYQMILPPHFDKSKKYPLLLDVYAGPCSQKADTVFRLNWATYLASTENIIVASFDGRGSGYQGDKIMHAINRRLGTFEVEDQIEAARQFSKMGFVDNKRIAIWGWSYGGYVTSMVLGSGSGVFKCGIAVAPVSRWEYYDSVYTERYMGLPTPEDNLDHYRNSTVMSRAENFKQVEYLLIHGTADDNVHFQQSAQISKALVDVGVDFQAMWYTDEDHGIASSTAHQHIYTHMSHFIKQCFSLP
Method for Caco-2 cell monolayers: CaCO-2 cells were cultured, and a monolayer was developed in-house in 96 well-plates over 18 days using standard protocol. The monolayer was tested for the integrity of the cell monolayer before using.
Test compounds were added to the transwell insert (apical compartment) to determine the rate of drug transport in the apical to basolateral direction. To determine the rate of drug transport in the basolateral to apical direction, the test compound was added to the receiver plate wells (basolateral compartment). Appropriate amount of HBSS (10 mM HEPES, pH 7.4) was added in both compartments for a final volume of 200 μL. The plates were incubated at 37° C. with shaking at 150 rpm on a rotary shaker for 2 hours. At the end of the transport period, 50 μL from the apical and basolateral wells were collected and 4 volume of cold acetonitrile containing internal standards (IS: 100 nM alprazolam, 200 nM labetalol, and 2 μM ketoprofen) was added to each sample to terminate the reaction. The samples were vortexed and centrifuged at 3,800 g for 20 minutes. An aliquot of 150 μL of the supernatant was used for LC/MS/MS analysis. All samples were analyzed in duplicates. Samples were analyzed through LC/MS/MS for estimating the permeability and efflux of the compounds across Caco-2 cell monolayers.
Method for Human plasma stability: as §1

COc1cc(NC(=O)[C@@H](N)C(C)C)c(C(=O)OCC(=O)[C@@]2(O)[C@H](C)CC3[C@@H]4CCC5=CC(=O)C=C[C@]5(C)[C@@]4(F)[C@@H](O)C[C@@]32C)c(OC(C)C)c1 (some centres unmarked) [Compound 14] showed a half-life at 5 μM (in vitro) greater than 240 min and a half-life at 5 μM (Rat plasma stability) greater than 240 min.
With CNC(C(=O)N1CCCC1C(=O)NCC(C)(C)C(C)C(=O)OCC(=O)[C@@]1(O)[C@H](C)C[C@H]2[C@@H]3CCC4=CC(=O)C=C[C@]4(C)[C@@]3(F)[C@@H](O)C[C@@]21C)C(C)C (some centres unmarked) [Compound 32] the half-life at 10 μM (DPP4) was 214 min.
In the case of CC(C)C(N)C(=O)N1CCCC1C(=O)NCC(C)(C)C(C)C(=O)OCC(=O)[C@@]1(O)[C@H](C)C[C@H]2[C@@H]3CCC4=CC(=O)C=C[C@]4(C)[C@@]3(F)[C@@H](O)C[C@@]21C (some centres unmarked) [Compound 31], the half-life at 10 μM (DPP4) was 167 min, the “Lung/Plasma % of Dex” value [1] was 74% and 100% and 78% and the Chemical stability [2] was “Yes”. For the same compound, the half-life at 5 μM (in vitro) was greater than 240 min, the RLM [3] was 63 and the Rat plasma stability (Rat plasma stability; 5 μM) was greater than 240. The half-life at 5 μM (Rat plasma stability) was greater than 240 min, the “Permeability A-B” value (Caco-2 cell monolayers) was “A-B = 0.065 × 10^−6, cm/s” and the “Permeability B-A” value (Caco-2 cell monolayers) was “B-A = 11 × 10^−6, cm/s”.
Compound COc1cc(NC(=O)[C@@H](N)C(C)C)c(C(=O)OCC(=O)[C@@]2(O)[C@H](C)CC3[C@@H]4CCC5=CC(=O)C=C[C@]5(C)[C@@]4(F)[C@@H](O)C[C@@]32C)c(OC)c1 (some centres unmarked) [Compound 11] has a half-life at 5 μM (in vitro) greater than 240 min and a half-life at 5 μM (Rat plasma stability) greater than 240 min.
With CC(C)C(N)C(=O)OCC(=O)[C@@]1(O)[C@H](C)C[C@H]2[C@@H]3CCC4=CC(=O)C=C[C@]4(C)[C@@]3(F)[C@@H](O)C[C@@]21C (some centres unmarked) [Comparative Compound 1, reference compound] the half-life at 5 μM (in vitro) was 173 min.
C[C@@H]1C[C@H]2[C@@H]3CCC4=CC(=O)C=C[C@]4(C)[C@@]3(F)[C@@H](O)C[C@]2(C)[C@@]1(O)C(=O)COC(=O)NCc1ccccc1NC(=O)[C@@H](N)Cc1ccccc1.Cl [Compound 23] gave a half-life at 5 μM (Rat plasma stability; [5]) greater than 240 min and a half-life at 5 μM (Human plasma stability) greater than 240 min.
In the case of CC(C)[C@H](NC(=O)[C@@H]1CCCN1C(=O)CN)C(=O)Nc1ccc(C(=O)OCC(=O)[C@@]2(O)[C@H](C)C[C@H]3[C@@H]4CCC5=CC(=O)C=C[C@]5(C)[C@@]4(F)[C@@H](O)C[C@@]32C)cc1 [Compound 3], the half-life at 10 μM (DPP4) was 152 min.
For C[C@@H]1CC2[C@@H]3CCC4=CC(=O)C=C[C@]4(C)[C@@]3(F)[C@@H](O)C[C@]2(C)[C@@]1(O)C(=O)COC(=O)c1cccc(F)c1NC(=O)[C@@H](N)Cc1ccccc1.Cl (some centres unmarked) [Compound 7], the “Chemical Stability, pH 4.5” value [2] was “Yes” and the “Chemical Stability, pH 7.4” value [2] was “Yes”.
With CC(C)[C@H](N)C(=O)Nc1cscc1CC(=O)OCC(=O)[C@@]1(O)[C@H](C)C[C@H]2[C@@H]3CCC4=CC(=O)C=C[C@]4(C)[C@@]3(F)[C@@H](O)C[C@@]21C.Cl [Compound 38] the “Chemical Stability, pH 4.5” value [2] was “Yes”, the “Chemical Stability, pH 7.4” value [2] was “Yes” and the half-life at 5 μM (Rat plasma stability; [5]) was greater than 240 min. The half-life at 5 μM (Human plasma stability) was greater than 240 min.
COc1cc(NC(=O)[C@@H](N)Cc2ccccc2)c(C(=O)OCC(=O)[C@@]2(O)[C@H](C)CC3[C@@H]4CCC5=CC(=O)C=C[C@]5(C)[C@@]4(F)[C@@H](O)C[C@@]32C)c(OC)c1 (some centres unmarked) [Compound 12] gave a half-life at 5 μM (in vitro) greater than 240 min and a half-life at 5 μM (Rat plasma stability) greater than 240 min.
In the case of CC(CC(=O)OCC(=O)[C@@]1(O)[C@H](C)C[C@H]2[C@@H]3CCC4=CC(=O)C=C[C@]4(C)[C@@]3(F)[C@@H](O)C[C@@]21C)c1ccccc1NC(=O)[C@@H](N)C(C)C.Cl (some centres unmarked) [Compound 18], the “GR Binding Data” value [4] was 46%.
With CC(C)[C@H](N)C(=O)NCCc1cscc1C(=O)OCC(=O)[C@@]1(O)[C@H](C)C[C@H]2[C@@H]3CCC4=CC(=O)C=C[C@]4(C)[C@@]3(F)[C@@H](O)C[C@@]21C [Compound 37] the half-life at 5 μM (in vitro) was greater than 240 min and the half-life at 5 μM (Rat plasma stability) was greater than 240 min.
Compound COc1cc(N(C)C)cc(NC(=O)[C@@H](N)Cc2ccccc2)c1C(=O)OCC(=O)[C@@]1(O)[C@H](C)CC2[C@@H]3CCC4=CC(=O)C=C[C@]4(C)[C@@]3(F)[C@@H](O)C[C@@]21C (some centres unmarked) [Compound 15] has a half-life at 5 μM (in vitro) greater than 240 min and a half-life at 5 μM (Rat plasma stability) greater than 240 min.
In the case of CC(C)[C@H](N)C(=O)Nc1ccc(C(=O)OCC(=O)[C@@]2(O)[C@H](C)C[C@H]3[C@@H]4CCC5=CC(=O)C=C[C@]5(C)[C@@]4(F)[C@@H](O)C[C@@]32C)cc1 [Compound 1], the half-life at 5 μM (in vitro) was greater than 240 min.
Compound CC(NC(=O)[C@@H](N)Cc1ccccc1)c1cscc1C(=O)OCC(=O)[C@@]1(O)[C@H](C)C[C@H]2[C@@H]3CCC4=CC(=O)C=C[C@]4(C)[C@@]3(F)[C@@H](O)C[C@@]21C (some centres unmarked) [Compound 36] has a half-life at 5 μM (in vitro) greater than 240 min and a half-life at 5 μM (Rat plasma stability) greater than 240 min.
In the case of C[C@@H]1C[C@H]2[C@@H]3CCC4=CC(=O)C=C[C@]4(C)[C@@]3(F)[C@@H](O)C[C@]2(C)[C@@]1(O)C(=O)COC(=O)[C@@H]1CCCN1 [Comparative Compound 3, reference compound], the half-life at 5 μM (in vitro) was 25 min.
With CC(C)[C@H](N)C(=O)Nc1ccc([C@H](C)NC(=O)OCC(=O)[C@@]2(O)[C@H](C)C[C@H]3[C@@H]4CCC5=CC(=O)C=C[C@]5(C)[C@@]4(F)[C@@H](O)C[C@@]32C)cc1 [Compound 24] the half-life at 5 μM (in vitro) was greater than 240 min and the half-life at 5 μM (Rat plasma stability) was greater than 240 min.
In the case of CC(NC(C)[C@@H](N)C(C)C)c1cscc1C(=O)OCC(=O)[C@@]1(O)[C@H](C)C[C@H]2[C@@H]3CCC4=CC(=O)C=C[C@]4(C)[C@@]3(F)[C@@H](O)C[C@@]21C (some centres unmarked) [Compound 35], the half-life at 5 μM (in vitro) was greater than 240 min and the half-life at 5 μM (Rat plasma stability) was greater than 240 min.
In the case of C[C@@H]1C[C@H]2[C@@H]3CCC4=CC(=O)C=C[C@]4(C)[C@@]3(F)[C@@H](O)C[C@]2(C)[C@@]1(O)C(=O)CO [Dexamethasone, reference compound], the “GR Binding Data” value [4] was 85%.
Compound CC(NNC(=O)C1CCCN1)C(C)C(=O)OCC(=O)[C@@]1(O)[C@H](C)C[C@H]2[C@@H]3CCC4=CC(=O)C=C[C@]4(C)[C@@]3(F)[C@@H](O)C[C@@]21C (some centres unmarked) [Compound 28] has a half-life at 5 μM (in vitro) greater than 240 min and a half-life at 5 μM (Rat plasma stability) of 147 min.
In the case of COc1cc(N(C)C)cc(NC(=O)[C@H](Cc2ccccc2)N(C)C)c1C(=O)OCC(=O)[C@@]1(O)[C@H](C)CC2[C@@H]3CCC4=CC(=O)C=C[C@]4(C)[C@@]3(F)[C@@H](O)C[C@@]21C (some centres unmarked) [Compound 16], the half-life at 5 μM (in vitro) was greater than 240 min and the half-life at 5 μM (Rat plasma stability) was greater than 240 min.
With COc1cc(Br)c(C(=O)OCC(=O)[C@@]2(O)[C@H](C)CC3[C@@H]4CCC5=CC(=O)C=C[C@]5(C)[C@@]4(F)[C@@H](O)C[C@@]32C)c(NC(=O)[C@@H](N)C(C)C)c1 (some centres unmarked) [Compound 13] the half-life at 5 μM (in vitro) was greater than 240 min and the half-life at 5 μM (Rat plasma stability) was greater than 240 min.
Work on CC(C)C(N)C(=O)N1CCCC1C(=O)NCC1(CC(=O)OCC(=O)[C@@]2(O)[C@H](C)C[C@H]3[C@@H]4CCC5=CC(=O)C=C[C@]5(C)[C@@]4(F)[C@@H](O)C[C@@]32C)CC1 (some centres unmarked) [Compound 34] yielded a half-life at 5 μM (in vitro) greater than 240 min and a half-life at 5 μM (Rat plasma stability) greater than 240 min.
In the case of CC(C)[C@H](N)C(=O)Nc1ccc(C(=O)OCC(=O)[C@@]2(O)[C@H](C)C[C@H]3[C@@H]4CCC5=CC(=O)C=C[C@]5(C)[C@@]4(F)[C@@H](O)C[C@@]32C)cc1F [Compound 6], the half-life at 5 μM (in vitro) was greater than 240 min and the half-life at 5 μM (Rat plasma stability) was greater than 240 min.

— patent US20260027131A1, “PRODRUGS, PRODRUG COMPOSITIONS AND RELATED METHODS” (Praesidia Biotherapeutics Inc., priority 2022, published 2026)
